According to PubChem BioAssay (NCI):
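How tested: cells in 96-well plates exposed to compound for 48 hours at five concentrations. At the GI50, growth is halved. TGI: concentration producing complete growth inhibition.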

How the values were obtained:
Test in all cases: NCI-60 cell line screen, 48 h
NCI-H460 lung = system: NCI-H460 lung
786-0 renal = system: 786-0 renal
A549 NSCLC = system: A549 NSCLC
NCI-H23 lung = system: NCI-H23 lung
SNB-19 CNS = system: SNB-19 CNS
NCI-H522 lung = system: NCI-H522 lung
SK-OV-3 ovarian = system: SK-OV-3 ovarian
OVCAR-5 ovarian = system: OVCAR-5 ovarian
T-47D breast = system: T-47D breast
SF-268 CNS = system: SF-268 CNS
CCRF-CEM leukemia = system: CCRF-CEM leukemia
A498 renal = system: A498 renal
MDA-MB-435 = system: MDA-MB-435
SNB-75 CNS = system: SNB-75 CNS
NCI-H226 lung = system: NCI-H226 lung
IGROV1 ovarian = system: IGROV1 ovarian
MOLT-4 leukemia = system: MOLT-4 leukemia
SN12C renal = system: SN12C renal
PC-3 prostate = system: PC-3 prostate

Compound | TGI (NCI-H460 lung) [µM] | TGI (786-0 renal) [µM] | TGI (A549 NSCLC) [µM] | TGI (NCI-H23 lung) [µM] | TGI (SNB-19 CNS) [µM] | TGI (NCI-H522 lung) [µM] | TGI (SK-OV-3 ovarian) [µM] | TGI (OVCAR-5 ovarian) [µM] | TGI (T-47D breast) [µM] | TGI (SF-268 CNS) [µM] | TGI (CCRF-CEM leukemia) [µM] | TGI (A498 renal) [µM] | TGI (MDA-MB-435) [µM] | TGI (SNB-75 CNS) [µM] | TGI (NCI-H226 lung) [µM] | TGI (IGROV1 ovarian) [µM] | TGI (MOLT-4 leukemia) [µM] | GI50 (SN12C renal) [µM] | TGI (SN12C renal) [µM] | TGI (PC-3 prostate) [µM]
CCC/C=C/c1cc2c(cc1O)CC[C@@H]1[C@@H]2CC[C@]2(C)[C@@H](O)CC[C@@H]12 | 33 | 30.1 | 36.9 | 35.9 | > 56.6 | 35.5 | 63.2 | 35.1 | 77.1 | 42.6 | 32.8 | 31.8 | 32.1 | 34.6 | 45.8 | 49.4 | 42.5 | 17.1 | 32.4 | 31
Cc1cc2cc3c(cc2c(-c2ccc([N+](=O)[O-])cc2)n1)OCO3 | > 100 | 42.5 | > 100 | > 100 | > 100 | 40.6 | 71.2 | > 100 | > 100 | > 100 | > 100 | > 100 | > 100 | 58.4 | 89.8 | 54.9 | > 100 | – | > 100 | > 100
O=C(O)C1CCCN(CCc2c[nH]c3ccccc23)C1 (stereo not given) | > 100 | > 100 | > 100 | > 100 | > 100 | > 100 | > 100 | > 100 | > 100 | > 100 | > 100 | > 100 | > 100 | > 100 | > 100 | > 100 | > 100 | – | > 100 | > 100
COC(=O)c1cc(C)ccc1C1CN=NC12Cc1ccc(C)cc1C2=O (stereo not given) | > 100 | > 100 | > 100 | > 100 | > 100 | 98.9 | > 100 | > 100 | > 100 | > 100 | > 100 | 91.3 | > 100 | > 100 | > 100 | > 100 | 80.6 | – | > 100 | > 100
OC1(c2ccccc2)C2CCN(CC2)C1CN1CCOCC1 (stereo not given) | > 100 | > 100 | > 100 | > 100 | > 100 | > 100 | > 100 | > 100 | > 100 | > 100 | > 100 | > 100 | > 100 | > 100 | > 100 | > 100 | > 100 | – | > 100 | > 100
Cc1cc2c(cc1C(=O)CCC(=O)O)CC1(C2)Cc2cc(C)c(C(=O)CCC(=O)O)cc2C1 | > 100 | > 100 | > 100 | > 100 | > 100 | > 100 | > 100 | > 100 | > 100 | > 100 | > 100 | > 100 | > 100 | > 100 | > 100 | > 100 | > 100 | – | > 100 | > 100
